Test results from US8338422B2, “Indolin-2-ones and aza-indolin-2-ones” (Janssen Pharmaceutica NV, priority 2007, dated 2012).
Values belong to the compound of their own block, whether it stands above or below them.

Assays:
[1] = target: AuroraB (h) (Homo sapiens, UniProt Q96GD4); assay: Aurora-B human kinase assay (SPA); format: biochemical; conditions: for IC50: read-out: AuroraB pIC50 (converted)
In short: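 Scintillation proximity assay: AuroraB (h) at 0.5 μg/ml with 3 μM biotinylated peptide, 0.5 μM ATP and 2.2 nM [γ-33P]ATP in 60 mM Hepes pH 7.5, 3 mM MgCl2, 3 mM MnCl2, 2 mM DTT. 60 min at room temperature, EDTA stop, streptavidin PVT beads read on Leadseeker.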

[2] = target: PLK4 (h) (Homo sapiens, UniProt O00444); assay: PLK-4 human kinase assay (SPA); format: biochemical; conditions: for IC50: read-out: PLK4 pIC50 (converted)
Sequence of PLK4 (h) (O00444 whole entry): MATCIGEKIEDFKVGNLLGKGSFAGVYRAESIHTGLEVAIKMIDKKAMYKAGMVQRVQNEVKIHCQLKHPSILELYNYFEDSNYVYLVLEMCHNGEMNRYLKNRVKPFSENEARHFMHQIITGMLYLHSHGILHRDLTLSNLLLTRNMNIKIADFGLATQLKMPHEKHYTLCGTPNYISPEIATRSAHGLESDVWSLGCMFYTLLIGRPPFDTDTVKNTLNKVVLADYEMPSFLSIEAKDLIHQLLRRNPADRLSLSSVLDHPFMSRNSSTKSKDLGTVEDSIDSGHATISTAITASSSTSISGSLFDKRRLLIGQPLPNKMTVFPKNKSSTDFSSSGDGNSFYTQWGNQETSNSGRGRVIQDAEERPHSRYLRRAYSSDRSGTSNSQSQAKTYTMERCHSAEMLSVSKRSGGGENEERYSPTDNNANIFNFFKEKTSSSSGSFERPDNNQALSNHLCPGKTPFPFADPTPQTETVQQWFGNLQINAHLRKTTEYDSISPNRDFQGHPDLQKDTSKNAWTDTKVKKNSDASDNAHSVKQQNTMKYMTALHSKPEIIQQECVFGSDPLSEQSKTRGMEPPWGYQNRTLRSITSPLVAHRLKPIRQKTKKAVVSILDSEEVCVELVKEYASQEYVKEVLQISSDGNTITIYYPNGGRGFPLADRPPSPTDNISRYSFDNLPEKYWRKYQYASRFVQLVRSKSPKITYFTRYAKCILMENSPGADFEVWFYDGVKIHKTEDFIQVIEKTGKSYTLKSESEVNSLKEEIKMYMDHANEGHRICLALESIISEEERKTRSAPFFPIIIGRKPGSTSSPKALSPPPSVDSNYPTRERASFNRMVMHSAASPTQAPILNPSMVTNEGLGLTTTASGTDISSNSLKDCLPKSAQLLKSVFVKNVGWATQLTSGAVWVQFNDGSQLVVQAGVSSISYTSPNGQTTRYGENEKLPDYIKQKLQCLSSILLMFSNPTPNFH
In short: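 Radiometric readout: 33P-labelled peptide captured on streptavidin SPA beads after EDTA stop, imaged by Leadseeker. Reaction ran 60 min at room temperature in Hepes pH 8.0 buffer. It contained 1 μM ATP with 2 nM [γ-33P]ATP, 10 μM biotinylated peptide and PLK4 (h) at 19 μg/ml.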

[3] = target: GSK3β (h) (Homo sapiens, UniProt P49841); assay: GSK-3β human kinase assay (SPA); format: biochemical; conditions: for IC50: read-out: GSK3B pIC50 (converted)
Sequence of GSK3β (h) (P49841 whole entry): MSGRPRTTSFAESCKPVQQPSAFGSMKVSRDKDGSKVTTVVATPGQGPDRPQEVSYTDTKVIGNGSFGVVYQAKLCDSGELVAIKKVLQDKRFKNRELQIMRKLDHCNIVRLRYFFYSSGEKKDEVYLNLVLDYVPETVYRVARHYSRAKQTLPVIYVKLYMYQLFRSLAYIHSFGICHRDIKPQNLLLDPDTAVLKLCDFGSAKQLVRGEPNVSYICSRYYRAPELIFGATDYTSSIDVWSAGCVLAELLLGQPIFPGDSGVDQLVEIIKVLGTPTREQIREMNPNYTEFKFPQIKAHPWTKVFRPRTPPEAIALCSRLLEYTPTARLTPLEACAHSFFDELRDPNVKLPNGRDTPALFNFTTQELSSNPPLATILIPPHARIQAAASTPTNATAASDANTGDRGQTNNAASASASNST
In short: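 Radiometric SPA read-out: after EDTA stop, biotinylated 33P-labelled peptide bound streptavidin PVT beads and was imaged on Leadseeker. Reaction: 60 min, room temperature, GSK3β (h) at 1 μg/ml, 1 μM substrate peptide, 1 μM ATP with 2 nM [γ-33P]ATP, Tris pH 7.4/MgCl2/DTT buffer.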

[4] = tested on: U87MG; assay: Cellular proliferation assay (Alamar blue), U87MG; format: cell-based; conditions: U87MG cells, 72 hours with compound, 10% FCS; for IC50: Homo sapiens, U-87 MG, 72 h, read-out: pIC50 U87MG (converted)
Description: (§1) […] functional properties of these compounds was tested in cellular proliferation assays on a panel of different cell lines in the presence of 10% FCS serum (37° C. and 5% (v/v) CO2). In a first step these cells were seeded and incubated for 24 hours in the absence of compound. In the second step the cells were incubated for 72 hours with the compounds to be tested for 72 hours. The viable cell number was finally assessed in a standard Alamar blue cell viability assay.
(§2) The viable cell number was assessed by incubation for either 4 h (HCT-116, H1299, H460) 6 h (SKOV3, HT29, U87-MG, Colo205) or 24 h (A2780, PC3, MDA-MB-231, A549, MCF-7) with Alamar blue (Resazurin 9 μg/ml, K-Ferrocyanide 90 μM K-Ferricyanide 90 μM) and the converted fluorescent product was quantified on a fluorescent plate readed (544 nm/590 nm). Effect of the compounds is calculated as of on control cells.

[5] = tested on: A2780; assay: Cellular proliferation assay (Alamar blue), A2780; format: cell-based; conditions: A2780 cells, 72 hours with compound, 10% FCS; for IC50: Homo sapiens, A2780, 72 h, read-out: pIC50 A2780 (converted)
Description: as §1, §2

[6] = tested on: H1299; assay: Cellular proliferation assay (Alamar blue), H1299; format: cell-based; conditions: H1299 cells, 72 hours with compound, 10% FCS; for IC50: Homo sapiens, NCI-H1299, 72 h, read-out: pIC50 H1299 (converted)
Description: as §1, §2

[7] = tested on: PC-3; assay: Cellular proliferation assay (Alamar blue), PC-3; format: cell-based; conditions: PC-3 cells, 72 hours with compound, 10% FCS; for IC50: Homo sapiens, PC-3, 72 h, read-out: pIC50 PC-3 (converted)
Description: as §1, §2

[8] = target: CDK1/CyclinB (h) (Homo sapiens, UniProt P06493); assay: CDK1/CyclinB human kinase assay (FRET); format: biochemical; conditions: for IC50: read-out: CDK1 pIC50 (converted)
Sequence of CDK1/CyclinB (h) (P06493 whole entry): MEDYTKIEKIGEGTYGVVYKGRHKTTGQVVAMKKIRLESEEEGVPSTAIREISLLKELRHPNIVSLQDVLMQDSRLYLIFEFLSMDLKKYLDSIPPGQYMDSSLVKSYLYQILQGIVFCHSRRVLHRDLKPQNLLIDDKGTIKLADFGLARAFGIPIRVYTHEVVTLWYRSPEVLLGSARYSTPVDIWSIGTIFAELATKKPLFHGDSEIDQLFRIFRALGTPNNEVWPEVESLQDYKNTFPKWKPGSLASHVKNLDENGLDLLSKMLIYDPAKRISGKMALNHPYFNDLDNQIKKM
Sequence of CDK1/CyclinB (h) (P14635 whole entry partner): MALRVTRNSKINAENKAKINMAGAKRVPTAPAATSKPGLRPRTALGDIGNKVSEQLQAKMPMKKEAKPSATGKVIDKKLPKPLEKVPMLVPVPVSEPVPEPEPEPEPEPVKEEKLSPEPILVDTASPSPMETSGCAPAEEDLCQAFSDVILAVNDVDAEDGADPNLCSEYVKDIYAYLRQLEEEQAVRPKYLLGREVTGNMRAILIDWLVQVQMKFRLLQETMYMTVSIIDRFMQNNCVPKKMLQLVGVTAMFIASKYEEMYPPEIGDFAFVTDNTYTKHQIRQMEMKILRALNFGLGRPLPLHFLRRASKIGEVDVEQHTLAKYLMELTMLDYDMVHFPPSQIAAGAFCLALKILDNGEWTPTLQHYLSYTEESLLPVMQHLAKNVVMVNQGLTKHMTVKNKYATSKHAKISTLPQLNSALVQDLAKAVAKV
In short: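 Z'-LYTE FRET format: 0.2 μg/ml enzyme with 2 μM Ser/Thr peptide 12 and 10 μM ATP in 50 mM Hepes pH 7.5, 10 mM MgCl2, 1 mM EGTA, 0.01% Brij-35, 60 min at room temperature. Protease development 60 min; coumarin/fluorescein emission ratio (460/538 nm, excitation 390 nm) reports phosphorylation.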

[9] = tested on: HCT-116; assay: Cellular proliferation assay (Alamar blue), HCT-116; format: cell-based; conditions: HCT-116 cells, 72 hours with compound, 10% FCS; for IC50: Homo sapiens, HCT-116, 72 h, read-out: pIC50 HCT-116 (converted)
Description: as §1, §2

[10] = tested on: MDA/MB231; assay: Cellular proliferation assay (Alamar blue), MDA/MB231; format: cell-based; conditions: MDA/MB231 cells, 72 hours with compound, 10% FCS; for IC50: Homo sapiens, MDA-MB-231, 72 h, read-out: pIC50 MDA/MB231 (converted)
Description: as §1, §2

Sequence of AuroraB (h) (Q96GD4 whole entry): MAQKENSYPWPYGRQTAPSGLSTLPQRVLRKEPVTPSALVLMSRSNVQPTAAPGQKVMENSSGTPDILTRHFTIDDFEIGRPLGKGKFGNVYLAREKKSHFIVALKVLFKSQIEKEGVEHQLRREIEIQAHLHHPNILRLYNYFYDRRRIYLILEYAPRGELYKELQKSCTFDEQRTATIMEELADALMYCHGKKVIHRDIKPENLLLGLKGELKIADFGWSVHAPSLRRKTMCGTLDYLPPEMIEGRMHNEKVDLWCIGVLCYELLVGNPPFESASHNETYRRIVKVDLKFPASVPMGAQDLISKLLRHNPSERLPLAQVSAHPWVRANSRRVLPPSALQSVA

IC50 [1]: > 10 µM
IC50 [2]: 0.417 µM
IC50 [3]: 2.04 µM
IC50 [4]: > 10 µM
IC50 [5]: > 10 µM
IC50 [6]: > 10 µM
IC50 [7]: > 10 µM
IC50 [9]: > 10 µM
Compound: C[C@@H]1CN(C)CCCNc2ncnc3c2/C(=C/Nc2cccc(c2)OCC(=O)N1)C(=O)N3 [Compound 99]
IC50 [10]: > 10 µM

IC50 [1]: 0.275 µM
IC50 [2]: 1.05 µM
IC50 [3]: 2 µM
IC50 [4]: 2.04 µM
IC50 [5]: 0.0724 µM
IC50 [6]: 0.275 µM
IC50 [7]: 1.58 µM
IC50 [9]: 0.17 µM
Compound: CN1CCCNc2ncnc3c2/C(=C/Nc2ccc(NC(=O)NC4CCCCC4)c(c2)OCCCC1=O)C(=O)N3 [Compound 107]
IC50 [10]: 2.34 µM

IC50 [1]: 0.617 µM
IC50 [2]: 0.891 µM
IC50 [3]: 1.55 µM
IC50 [4]: > 10 µM
IC50 [5]: > 10 µM
IC50 [6]: > 10 µM
IC50 [7]: > 10 µM
IC50 [9]: > 10 µM
Compound: CN1CCCNc2ncnc3c2/C(=C/Nc2ccc(NC(=O)c4ccccc4)c(c2)OCCCC1=O)C(=O)N3 [Compound 108]
IC50 [10]: 8.32 µM

IC50 [1]: 0.0912 µM
IC50 [2]: 0.224 µM
IC50 [3]: 0.141 µM
IC50 [4]: > 10 µM
IC50 [5]: 0.871 µM
IC50 [6]: > 10 µM
IC50 [7]: > 10 µM
IC50 [9]: 0.603 µM
Compound: CN1CCCNc2ncnc3c2/C(=C/Nc2ccc(NS(=O)(=O)c4ccccc4)c(c2)OCCCC1=O)C(=O)N3 [Compound 109]
IC50 [10]: > 10 µM

IC50 [1]: 0.537 µM
IC50 [2]: 0.407 µM
IC50 [3]: 0.912 µM
IC50 [4]: 8.71 µM
IC50 [5]: 1.17 µM
IC50 [6]: 2.63 µM
IC50 [7]: 5.01 µM
IC50 [9]: 1.66 µM
Compound: CN1CCCNc2ncnc3c2/C(=C/Nc2ccc(NCc4ccccc4)c(c2)OCCCC1=O)C(=O)N3 [Compound 110]
IC50 [10]: > 10 µM

IC50 [1]: > 10 µM
IC50 [3]: 3.09 µM
IC50 [4]: 2.69 µM
IC50 [5]: 3.24 µM
IC50 [6]: > 10 µM
IC50 [7]: 6.46 µM
IC50 [9]: 3.63 µM
Compound: COc1nc2c3c(n1)NC(=O)/C3=C\Nc1ccc(Cl)c(c1)OCCCCC(=O)N(C)CCCN2 [Compound 111]

IC50 [1]: > 10 µM
IC50 [2]: 0.525 µM
IC50 [3]: 0.0513 µM
IC50 [4]: 0.501 µM
IC50 [5]: 1.23 µM
IC50 [6]: 2.63 µM
IC50 [7]: 6.17 µM
IC50 [8]: 1.55 µM
Compound: CN1CCN(c2ccc3cc2CN(C)CCCC(=O)N(C)CCCNc2ncnc4c2/C(=C/N3)C(=O)N4)CC1 [Compound 140]

IC50 [1]: 0.331 µM
IC50 [2]: 2.75 µM
IC50 [3]: 3.55 µM
IC50 [4]: 1.23 µM
IC50 [5]: 0.166 µM
IC50 [6]: 0.55 µM
IC50 [7]: 1.32 µM
IC50 [9]: 0.229 µM
Compound: CN1CCCNc2ncnc3c2/C(=C/Nc2ccc(NC(=O)Nc4ccccc4)c(c2)OCCCC1=O)C(=O)N3 [Compound 158]
IC50 [10]: 4.37 µM

IC50 [1]: 1.86 µM
IC50 [3]: 4.07 µM
IC50 [4]: > 10 µM
IC50 [5]: > 10 µM
IC50 [6]: > 10 µM
IC50 [7]: > 10 µM
IC50 [9]: > 10 µM
Compound: COc1ccc2cc1OCC(=O)NCCN1CCN(CC1)c1ncnc3c1/C(=C/N2)C(=O)N3 [Compound 207]
IC50 [10]: > 10 µM

The remaining lines, values behind:

Compound: CN1CCN(c2ccc3cc2OCCCC(=O)N(C)CCCNc2ncnc4c2C(=CN3)C(=O)N4)CC1 (mixture of isomers) [Compound 133]
AuroraB pIC50 [1]: 5.81
PLK4 pIC50 [2]: 7.21
GSK3B pIC50 [3]: 6.95
pIC50 U87MG [4]: 5.65
pIC50 A2780 [5]: 6.00
pIC50 H1299 [6]: 5.17
pIC50 PC-3 [7]: 5.02
CDK1 pIC50 [8]: 6.8
pIC50 HCT-116 [9]: 6.16

Compound: O=C1CCCOc2cccc(c2)NC=C2C(=O)Nc3ncnc(c32)NCCCN1 (mixture of isomers) [Compound 142]
AuroraB pIC50 [1]: 6.93
PLK4 pIC50 [2]: 7.3
GSK3B pIC50 [3]: 7.7
pIC50 U87MG [4]: 5.19
pIC50 A2780 [5]: <5
pIC50 H1299 [6]: 6.14
pIC50 PC-3 [7]: 5.75
pIC50 MDA/MB231 [10]: <5
CDK1 pIC50 [8]: 6.83

Compound: COc1ccc2cc1OCCCC(=O)NCCCNc1ncnc3c1C(=CN2)C(=O)N3 (mixture of isomers) [Compound 146]
AuroraB pIC50 [1]: 7.24
PLK4 pIC50 [2]: 7.34
GSK3B pIC50 [3]: 7.56
pIC50 U87MG [4]: 5.80
pIC50 A2780 [5]: 5.83
pIC50 H1299 [6]: 6.41
pIC50 PC-3 [7]: 6.22
CDK1 pIC50 [8]: 7.21
pIC50 HCT-116 [9]: 6.15

Compound: O=C1Nc2ncnc3c2/C1=C/Nc1ccc(Cl)c(c1)OCCCCCC(=O)N1CCN3CC1 [Compound 25]
IC50 [2]: > 10 µM
IC50 [4]: > 10 µM
IC50 [5]: > 10 µM
IC50 [7]: > 10 µM
IC50 [10]: > 10 µM

Compound: CC(C)N1CCCCCCC(=O)N2CCN(CC2)c2ncnc3c2/C(=C/Nc2ccc(F)c(c2)C1)C(=O)N3 [Compound 29]
IC50 [2]: > 10 µM
IC50 [4]: > 10 µM
IC50 [5]: > 10 µM
IC50 [7]: > 10 µM
IC50 [10]: > 10 µM
IC50 [9]: > 10 µM

Compound: CN1CCCNc2ncnc3c2/C(=C/Nc2ccc(Cl)c(c2)OCCCCC1=O)C(=O)N3 [Compound 61]
IC50 [1]: 0.0513 µM
IC50 [2]: 1.78 µM
IC50 [3]: 0.0631 µM
IC50 [5]: > 10 µM
IC50 [6]: > 10 µM
IC50 [7]: > 10 µM
IC50 [10]: > 10 µM
IC50 [8]: > 10 µM
IC50 [9]: 8.71 µM

Compound: CN1CCCNc2ncnc3c2/C(=C/Nc2cccc(c2)OCCCCCCC1=O)C(=O)N3 [Compound 69]
IC50 [1]: 5.01 µM
IC50 [2]: 3.39 µM
IC50 [3]: 1.07 µM
IC50 [4]: > 10 µM
IC50 [5]: > 10 µM
IC50 [6]: > 10 µM
IC50 [8]: > 10 µM
IC50 [9]: > 10 µM
